{"source": "paper PMC4835877", "about": "“HM71224, a novel Bruton’s tyrosine kinase inhibitor, suppresses B cell and monocyte activation and ameliorates arthritis in a mouse model: a potential drug for rheumatoid arthritis” (Arthritis Research & Therapy, 2016)", "key": {"CD3+ T cells": {"system": "CD3+ T cells", "assay": "T cell signaling, phospho-flow of CD3/CD28-activated PBMCs", "assay_type": "cell-based, human", "conditions": "CD3- and CD28-conjugated beads", "protocol": "(§1) For phospho-flow, B cells were activated by crosslinking their BCRs with anti-human IgM antibodies (10 μg/mL; BD Biosciences) for 10 minutes at 37 °C. Cells were then fixed with 2 % paraformaldehyde at 37 °C for 12 minutes, permeabilized, and stained with anti-CD3-FITC (SK7; BD Biosciences), anti-CD20-PerCP-Cy5.5 (H1; BD Biosciences), anti-pBtk (Y223)-Alexa647 (N35-86; BD Biosciences), anti-pPLCγ2 (Y759)-Alexa647 (K86-689.37; BD Biosciences), anti-pSTAT1 (Y701)-Alexa647 (4a; BD Biosciences), anti-pSTAT3 (Y705)-Alexa647 (4/P-STAT3; BD Biosciences), anti-pSTAT5 (Y694)-Alexa647 (47; BD Biosciences), and anti-pERK1/2 (T202/204)-Alexa647 (20A; BD Biosciences) antibodies. The cells were then washed and analyzed on an LSR II flow cytometer (BD Biosciences). Data were analyzed using FlowJo software, version 8.8 (Treestar, Ashland, OR, USA).\nFigure S5. Effect of HM71224 on human T cell signaling. […] The expression level of p-STAT1, p-STAT3, p-STAT5, and p-ERK1/2 by CD3+ T cells was then measured by phospho-flow cytometry."}, "[1]": {"system": "phosphorylation of Btk and PLCγ2 in Ramos cells", "assay": "BCR signaling in anti-IgM stimulated Ramos cells (immunoblot)", "assay_type": "cell-based, human", "procedure": "Ramos cells or human B cells were pretreated with the indicated concentrations of HM71224 and then stimulated with anti-IgM F(ab’)2 (Southern Biotech, Birmingham, AL, USA) for 10 minutes on ice. Cells were then lysed in RIPA buffer (Sigma-Aldrich), and the proteins were separated by SDS-PAGE (Bio-Rad Laboratories, Hercules, CA, USA), transferred onto polyvinylidene fluoride (PVDF) membranes, and immunoblotted with anti-pBtk Y223 (catalog number 5082; Cell Signaling Technology, Danvers, MA, USA), anti-pPLCγ2 Y759 (catalog number 3874; Cell Signaling Technology), anti-pPLCγ2 Y1217 (Cell Signaling Technology), anti-pERK T202/204 (197G2; Cell Signaling Technology), anti-Btk (C82B8; Cell Signal Technology), anti-PLCγ2 (catalog number 3872; Cell Signal Technology), anti-ERK1/2 (3A7; Cell Signaling Technology), and anti-GAPDH (FL-335; Santa Cruz Biotechnology, Santa Cruz, TX, USA) antibodies.\nThe Ramos B cell lymphoma cell line was chosen to study the inhibitory effects of HM71224 on the BCR signaling cascade as it endogenously expresses Btk [14]. […] Ramos cells were incubated with 100 nM HM71224 for 1 h. After washing, the cells were stimulated with anti-IgM F(ab’)2."}, "human CD14+ monocytes": {"system": "human CD14+ monocytes", "assay": "Cytokine production by IC-stimulated human monocytes (ELISA)", "assay_type": "cell-based", "conditions": "heat-inactivated ICs, increasing concentrations", "procedure": "Human monocytes were stimulated with heat-inactivated ICs at 37 °C for 30 minutes in the presence of increasing concentrations of HM71224. Human PDCs were stimulated with lipopolysaccharide (LPS) or CpG ODN 2006 (ThermoFisher Scientific) for 48 h in the absence or presence of HM71224 (1 μM). The production of tumor necrosis factor (TNF)-α, interleukin (IL)-1β, and IL-6 was then measured using a commercial ELISA (R&D Systems). […] The levels of the indicated cytokines in the culture supernatant were then measured by ELISA at 5 h post stimulation. […] The levels of the indicated cytokines in the culture supernatant were then measured by ELISA at 48 h post stimulation.*P < 0.05, **P < 0.01, and ***P < 0.001 vs. no treatment. LPS lipopolysaccharide"}, "[2]": {"system": "activated primary human B cells", "assay": "Surface activation marker expression by activated B cells (flow cytometry)", "assay_type": "cell-based", "conditions": "B-cell, anti-IgM F(ab')2 for 24 h", "protocol": "Human PBMCs (10^6 cells/mL) were allowed to rest at 37 °C for 2 h. […] To examine changes in the expression of surface activation markers, cells were stained with anti-CD3-FITC (SK7; BD Biosciences), anti-CD19-PE (HIB19; BD Biosciences), anti-CD40-PE-Cy7 (5C3; BD Biosciences), anti-CD69-V450 (FN50; BD Biosciences), and anti-CD86-PerCP-Cy5.5 (2331 (FUN-1); BD Biosciences) antibodies."}, "JAK3": {"biological_target": "JAK3 (Homo sapiens, UniProt P52333)", "sequence (P52333 whole entry)": "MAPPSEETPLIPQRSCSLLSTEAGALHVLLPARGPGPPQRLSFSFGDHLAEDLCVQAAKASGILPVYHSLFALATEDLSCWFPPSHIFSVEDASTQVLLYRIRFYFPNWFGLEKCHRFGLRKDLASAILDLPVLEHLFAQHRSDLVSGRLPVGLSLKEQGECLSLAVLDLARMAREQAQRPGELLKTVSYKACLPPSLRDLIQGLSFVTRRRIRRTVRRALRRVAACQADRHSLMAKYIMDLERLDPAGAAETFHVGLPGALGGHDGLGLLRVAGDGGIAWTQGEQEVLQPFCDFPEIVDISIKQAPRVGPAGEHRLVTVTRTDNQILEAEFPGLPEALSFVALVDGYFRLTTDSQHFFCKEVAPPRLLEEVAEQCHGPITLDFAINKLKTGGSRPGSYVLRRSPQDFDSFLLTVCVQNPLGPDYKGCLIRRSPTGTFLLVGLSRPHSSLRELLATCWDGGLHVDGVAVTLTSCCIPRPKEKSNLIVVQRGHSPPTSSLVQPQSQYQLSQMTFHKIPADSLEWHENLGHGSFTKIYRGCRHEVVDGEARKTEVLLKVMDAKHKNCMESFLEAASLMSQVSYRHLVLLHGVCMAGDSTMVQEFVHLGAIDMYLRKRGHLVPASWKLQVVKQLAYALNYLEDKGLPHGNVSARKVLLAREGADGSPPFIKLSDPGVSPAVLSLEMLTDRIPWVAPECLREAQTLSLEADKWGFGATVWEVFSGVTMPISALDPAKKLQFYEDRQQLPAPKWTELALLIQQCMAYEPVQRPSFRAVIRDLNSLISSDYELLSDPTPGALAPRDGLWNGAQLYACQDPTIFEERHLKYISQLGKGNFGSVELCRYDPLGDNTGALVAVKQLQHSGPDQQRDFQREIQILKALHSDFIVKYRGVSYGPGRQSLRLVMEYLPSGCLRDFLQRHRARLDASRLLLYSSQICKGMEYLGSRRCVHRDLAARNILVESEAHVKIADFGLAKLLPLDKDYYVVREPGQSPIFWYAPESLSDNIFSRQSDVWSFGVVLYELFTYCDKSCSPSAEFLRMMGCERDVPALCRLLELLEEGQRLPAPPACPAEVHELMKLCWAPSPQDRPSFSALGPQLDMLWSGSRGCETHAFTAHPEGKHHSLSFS", "assay": "biochemical"}, "BTK [3]": {"biological_target": "T1, BTK (Homo sapiens, UniProt Q06187)", "T1 sequence (Q06187 whole entry)": "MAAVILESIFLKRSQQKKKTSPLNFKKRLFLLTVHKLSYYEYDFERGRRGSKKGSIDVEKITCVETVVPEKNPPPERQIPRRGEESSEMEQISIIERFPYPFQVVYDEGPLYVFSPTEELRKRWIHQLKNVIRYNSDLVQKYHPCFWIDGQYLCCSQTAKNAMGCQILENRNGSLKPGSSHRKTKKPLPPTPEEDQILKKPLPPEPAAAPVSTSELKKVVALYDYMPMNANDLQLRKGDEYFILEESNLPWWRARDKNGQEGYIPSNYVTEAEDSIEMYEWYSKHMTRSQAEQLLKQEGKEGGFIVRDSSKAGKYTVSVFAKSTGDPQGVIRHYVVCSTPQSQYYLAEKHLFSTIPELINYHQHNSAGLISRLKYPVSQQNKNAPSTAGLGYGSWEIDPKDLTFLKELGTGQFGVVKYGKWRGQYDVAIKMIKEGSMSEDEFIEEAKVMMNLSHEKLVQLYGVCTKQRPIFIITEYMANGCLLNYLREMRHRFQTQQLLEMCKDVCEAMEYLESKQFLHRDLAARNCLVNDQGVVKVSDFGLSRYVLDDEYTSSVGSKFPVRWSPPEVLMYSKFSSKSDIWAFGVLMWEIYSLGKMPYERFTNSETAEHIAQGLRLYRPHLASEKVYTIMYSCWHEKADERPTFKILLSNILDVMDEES", "assay": "Btk occupancy in human PBMCs (biotinylated probe)", "assay_type": "cell-based", "conditions": "primary human cells (PBMCs), 100 nM"}, "BTK [4]": {"biological_target": "T1, BTK", "assay": "Btk occupancy in Ramos cells (biotinylated probe)", "assay_type": "cell-based", "protocol": "After treatment with HM71224, cells were lysed and then incubated for 1 h with 1 μM of biotinylated probe (HM71224 derivative). The lysed cells were loaded into streptavidin-coated wells and then incubated with an anti-Btk antibody (1:1000; clone number D3H5, Cell signaling Technology, Danvers, MA, USA) for 1 h, followed by a secondary HRP-conjugated antibody (1:10000; EMD Millipore Corporation, Billerica, MA, USA) at room temperature for 1 h. After washing, 100 μL of colorimetric solution (R&D systems, Minneapolis, MN, USA) was added, and the reaction was stopped 30 minutes later by addition of 100 μL of sulfuric acid (0.2 moles/L). The plate was read with the absorbance reader at 450 nm.\nTo measure Btk occupancy by immunoprecipitation (IP), biotinylated HM71224 probes were preincubated with cell lysates for 1 h at 4 °C. Streptavidin-coated beads were then added, and the mixture was incubated overnight at 4 °C. Immunoblotting was then performed, and band density was measured using MultiGauge V3.0 software (FUJI FILM, Tokyo, Japan). Untreated biotinylated probes were set at 100 %."}, "LCK": {"biological_target": "T2, LCK (Homo sapiens, UniProt P06239)", "T2 construct": "purchased ThermoFisher Scientific (contract research organization)", "T2 sequence (P06239 whole entry)": "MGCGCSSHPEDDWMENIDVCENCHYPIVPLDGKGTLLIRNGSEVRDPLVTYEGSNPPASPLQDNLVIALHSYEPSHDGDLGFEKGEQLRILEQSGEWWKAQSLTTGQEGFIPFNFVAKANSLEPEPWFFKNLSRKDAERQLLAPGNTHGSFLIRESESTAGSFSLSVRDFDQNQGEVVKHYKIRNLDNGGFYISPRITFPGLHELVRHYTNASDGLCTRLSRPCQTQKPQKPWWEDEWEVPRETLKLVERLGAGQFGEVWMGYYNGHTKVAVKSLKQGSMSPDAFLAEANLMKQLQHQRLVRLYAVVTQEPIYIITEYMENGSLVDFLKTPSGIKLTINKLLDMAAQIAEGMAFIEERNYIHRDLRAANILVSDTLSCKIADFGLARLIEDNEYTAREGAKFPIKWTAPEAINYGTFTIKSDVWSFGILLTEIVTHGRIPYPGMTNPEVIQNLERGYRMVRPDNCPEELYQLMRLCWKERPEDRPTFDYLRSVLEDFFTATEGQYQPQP", "assay": "FRET-based Z'-Lyte kinase assay", "conditions": "read-out: Biochemical Inhibition, IC50", "source_text": "(§2) To determine the biochemical selectivity of HM71224, we tested more than 85 kinases using the fluorescence resonance energy transfer (FRET) method."}, "CSK": {"biological_target": "T3, CSK (Homo sapiens, UniProt P41240)", "T3 construct": "purchased ThermoFisher Scientific (contract research organization)", "T3 sequence (P41240 whole entry)": "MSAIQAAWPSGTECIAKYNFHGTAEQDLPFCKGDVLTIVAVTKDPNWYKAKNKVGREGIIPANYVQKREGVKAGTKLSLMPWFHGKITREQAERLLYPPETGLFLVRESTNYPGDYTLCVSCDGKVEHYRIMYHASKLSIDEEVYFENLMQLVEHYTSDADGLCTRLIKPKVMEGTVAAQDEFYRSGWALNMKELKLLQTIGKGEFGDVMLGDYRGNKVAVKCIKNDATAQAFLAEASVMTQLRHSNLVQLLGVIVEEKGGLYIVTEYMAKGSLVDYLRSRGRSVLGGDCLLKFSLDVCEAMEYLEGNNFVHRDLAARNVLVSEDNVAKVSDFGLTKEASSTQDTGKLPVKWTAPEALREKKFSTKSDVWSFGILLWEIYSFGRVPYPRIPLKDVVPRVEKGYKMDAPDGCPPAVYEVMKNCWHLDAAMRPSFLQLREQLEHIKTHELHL", "assay": "FRET-based Z'-Lyte kinase assay", "conditions": "read-out: Biochemical Inhibition, IC50", "source_text": "as §2"}, "TEC": {"biological_target": "T4, TEC (Homo sapiens, UniProt P42680)", "T4 construct": "purchased ThermoFisher Scientific (contract research organization)", "assay": "FRET-based Z'-Lyte kinase assay", "conditions": "read-out: Biochemical Inhibition, IC50", "source_text": "as §2"}, "TXK": {"biological_target": "T5, TXK (Homo sapiens, UniProt P42681)", "T5 construct": "purchased ThermoFisher Scientific (contract research organization)", "T5 sequence (P42681 whole entry)": "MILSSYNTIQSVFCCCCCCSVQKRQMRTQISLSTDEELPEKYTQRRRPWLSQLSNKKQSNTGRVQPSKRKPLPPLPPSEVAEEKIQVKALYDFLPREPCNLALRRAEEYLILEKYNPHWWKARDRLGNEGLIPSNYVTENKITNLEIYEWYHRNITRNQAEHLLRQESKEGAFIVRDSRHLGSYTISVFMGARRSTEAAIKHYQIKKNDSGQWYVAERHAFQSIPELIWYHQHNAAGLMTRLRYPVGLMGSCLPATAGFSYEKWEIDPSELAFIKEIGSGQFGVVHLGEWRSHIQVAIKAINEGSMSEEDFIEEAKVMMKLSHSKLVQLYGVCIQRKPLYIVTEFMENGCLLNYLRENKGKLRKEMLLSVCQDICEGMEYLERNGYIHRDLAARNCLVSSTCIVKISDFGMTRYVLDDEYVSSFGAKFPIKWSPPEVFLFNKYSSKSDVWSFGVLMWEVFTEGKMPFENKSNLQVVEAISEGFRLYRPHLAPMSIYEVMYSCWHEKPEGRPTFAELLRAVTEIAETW", "assay": "FRET-based Z'-Lyte kinase assay", "conditions": "read-out: Biochemical Inhibition, IC50", "source_text": "as §2"}, "ITK": {"biological_target": "T6, ITK (Homo sapiens, UniProt Q08881)", "T6 construct": "purchased ThermoFisher Scientific (contract research organization)", "assay": "FRET-based Z'-Lyte kinase assay", "conditions": "read-out: Biochemical Inhibition, IC50", "source_text": "as §2"}, "LYN": {"biological_target": "T7, LYN (Homo sapiens, UniProt P07948)", "T7 construct": "purchased ThermoFisher Scientific (contract research organization)", "assay": "FRET-based Z'-Lyte kinase assay", "conditions": "read-out: Biochemical Inhibition, IC50", "source_text": "as §2"}, "YES": {"biological_target": "T8, YES (Homo sapiens, UniProt P07947)", "T8 construct": "purchased ThermoFisher Scientific (contract research organization)", "T8 sequence (P07947 whole entry)": "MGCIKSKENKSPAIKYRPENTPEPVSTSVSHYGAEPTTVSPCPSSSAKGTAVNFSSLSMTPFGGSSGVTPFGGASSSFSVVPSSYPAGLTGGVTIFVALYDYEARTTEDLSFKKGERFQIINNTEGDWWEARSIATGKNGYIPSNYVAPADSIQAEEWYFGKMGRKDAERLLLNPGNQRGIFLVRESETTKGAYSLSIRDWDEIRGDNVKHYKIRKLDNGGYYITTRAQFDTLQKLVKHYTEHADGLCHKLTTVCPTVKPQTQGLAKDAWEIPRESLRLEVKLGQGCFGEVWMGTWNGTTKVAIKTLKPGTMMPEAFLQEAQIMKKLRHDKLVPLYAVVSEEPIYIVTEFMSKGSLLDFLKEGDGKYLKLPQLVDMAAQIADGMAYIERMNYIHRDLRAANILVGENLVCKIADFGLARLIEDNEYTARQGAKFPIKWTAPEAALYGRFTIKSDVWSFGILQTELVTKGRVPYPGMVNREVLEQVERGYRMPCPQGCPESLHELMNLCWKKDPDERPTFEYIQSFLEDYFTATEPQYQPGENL", "assay": "FRET-based Z'-Lyte kinase assay", "conditions": "read-out: Biochemical Inhibition, IC50", "source_text": "as §2"}, "BLK": {"biological_target": "T9, BLK (Homo sapiens, UniProt P51451)", "T9 construct": "purchased ThermoFisher Scientific (contract research organization)", "T9 sequence (P51451 whole entry)": "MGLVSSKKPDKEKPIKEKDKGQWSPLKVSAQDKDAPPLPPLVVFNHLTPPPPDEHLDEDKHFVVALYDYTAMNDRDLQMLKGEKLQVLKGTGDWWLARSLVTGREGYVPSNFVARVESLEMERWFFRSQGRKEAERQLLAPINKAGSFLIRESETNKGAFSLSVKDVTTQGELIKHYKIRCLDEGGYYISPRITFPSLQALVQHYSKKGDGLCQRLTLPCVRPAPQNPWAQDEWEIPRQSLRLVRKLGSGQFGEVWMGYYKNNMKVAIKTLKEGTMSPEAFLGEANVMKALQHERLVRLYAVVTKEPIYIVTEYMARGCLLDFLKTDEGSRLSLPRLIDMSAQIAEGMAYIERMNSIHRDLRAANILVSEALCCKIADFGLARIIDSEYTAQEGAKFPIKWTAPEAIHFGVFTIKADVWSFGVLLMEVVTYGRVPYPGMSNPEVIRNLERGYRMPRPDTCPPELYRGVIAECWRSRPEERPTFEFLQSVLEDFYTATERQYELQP", "assay": "FRET-based Z'-Lyte kinase assay", "conditions": "read-out: Biochemical Inhibition, IC50", "source_text": "as §2"}, "BMX": {"biological_target": "T10, BMX (Homo sapiens, UniProt P51813)", "T10 construct": "purchased ThermoFisher Scientific (contract research organization)", "T10 sequence (P51813 whole entry)": "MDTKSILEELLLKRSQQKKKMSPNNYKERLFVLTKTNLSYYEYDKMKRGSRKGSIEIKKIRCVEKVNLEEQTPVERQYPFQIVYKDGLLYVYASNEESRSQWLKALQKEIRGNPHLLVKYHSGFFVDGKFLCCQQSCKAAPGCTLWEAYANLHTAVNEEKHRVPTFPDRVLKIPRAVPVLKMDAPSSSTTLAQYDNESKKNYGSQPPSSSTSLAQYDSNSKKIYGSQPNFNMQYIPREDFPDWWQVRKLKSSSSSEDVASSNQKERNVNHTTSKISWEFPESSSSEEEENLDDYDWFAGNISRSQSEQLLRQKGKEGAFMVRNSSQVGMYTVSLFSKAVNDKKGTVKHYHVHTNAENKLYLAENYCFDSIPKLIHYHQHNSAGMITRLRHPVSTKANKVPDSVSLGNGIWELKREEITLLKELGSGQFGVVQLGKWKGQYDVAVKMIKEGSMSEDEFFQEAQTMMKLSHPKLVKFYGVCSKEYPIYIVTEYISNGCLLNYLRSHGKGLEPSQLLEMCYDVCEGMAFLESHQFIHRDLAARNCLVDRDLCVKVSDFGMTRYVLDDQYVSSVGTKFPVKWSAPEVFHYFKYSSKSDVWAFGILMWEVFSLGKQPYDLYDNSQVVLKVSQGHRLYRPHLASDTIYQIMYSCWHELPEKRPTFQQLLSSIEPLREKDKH", "assay": "FRET-based Z'-Lyte kinase assay", "conditions": "read-out: Biochemical Inhibition, IC50", "source_text": "as §2"}, "[5]": {"system": "phosphorylation of Btk, PLC-γ2, Erk", "assay": "Phospho-flow cytometry of BCR-crosslinked human PBMCs", "assay_type": "cell-based", "conditions": "anti-IgM F(ab')2", "protocol": "as §1"}}, "note": "Where two headings read alike, the source gives them in different places."}
{"molecule": "C=CC(=O)Nc1cccc(Oc2nc(Nc3ccc(N4CCN(C)CC4)cc3)nc3ccoc23)c1", "note": "[HM71224]", "values": [{"measurement": "T cell receptor signaling (p-STAT1, p-STAT3 and p-STAT5)", "setting": "CD3+ T cells", "value": "not affected"}, {"measurement": "p-ERK1/2 in CD3+ T cells", "setting": "CD3+ T cells", "value": "inhibited"}, {"measurement": "Duration of inhibition of BTK phosphorylation after washout", "setting": "[1]; 100 nM for 1 h, washed, then anti-IgM F(ab')2", "value": "at least 24 h"}, {"measurement": "Phosphorylation of Btk and PLCγ2", "setting": "[1]; anti-IgM F(ab')2", "value": "decreased markedly"}, {"measurement": "Production of TNF-α, IL-1β, and IL-6", "setting": "human CD14+ monocytes", "value": "inhibited in a dose-dependent manner"}, {"measurement": "IC50", "setting": "[2]; read-out: IC50, surface expression of CD40", "value": 4.2, "unit": "nM"}, {"measurement": "IC50", "setting": "[2]; read-out: IC50, surface expression of CD69", "value": 4.2, "unit": "nM"}, {"measurement": "IC50", "setting": "[2]; read-out: IC50, surface expression of CD86", "value": 7.7, "unit": "nM"}, {"measurement": "IC50", "setting": "JAK3", "value": 14.6, "unit": "nM"}, {"measurement": "Btk sites occupied", "setting": "BTK [3]", "value": "> 70", "unit": "%"}, {"measurement": "Btk molecules occupied", "setting": "BTK [4]; 10 nM", "value": "approximately 90%"}, {"measurement": "Btk molecules occupied", "setting": "BTK [4]; 100 nM", "value": "~100", "unit": "%"}, {"measurement": "IC50", "setting": "LCK", "value": "> 1000", "unit": "nM"}, {"measurement": "IC50", "setting": "CSK", "value": "> 1000", "unit": "nM"}, {"measurement": "IC50", "setting": "TEC", "value": 4.57, "unit": "nM"}, {"measurement": "IC50", "setting": "TXK", "value": 4.62, "unit": "nM"}, {"measurement": "IC50", "setting": "ITK", "value": 103, "unit": "nM"}, {"measurement": "IC50", "setting": "LYN", "value": "> 1000", "unit": "nM"}, {"measurement": "IC50", "setting": "YES", "value": 562, "unit": "nM"}, {"measurement": "IC50", "setting": "BLK", "value": 13.5, "unit": "nM"}, {"measurement": "IC50", "setting": "BMX", "value": 0.64, "unit": "nM"}, {"measurement": "Phosphorylation of Btk and Erk by phospho-flow", "setting": "[5]", "value": "inhibited phosphorylation of BTK, and p-Erk in a dose-dependent manner"}]}
